# Entries after “also recorded” stand apart in the source; their conditions may differ. Where two headings read alike, the source gives them in different places.
# Experiments:
# [1] = biological target: T1, α7 receptors (Homo sapiens, UniProt P36544); type: cell-based; settings: oocytes expressing α7 receptors
# T1 construct: expressed in transfected cells; host or cells: Xenopus laevis oocytes (mRNA injection)
# Text: (§1) ACh control applications alternated with test compound applications.
# [2] = biological target: T2, α4β2 receptors (Homo sapiens, UniProt P17787+P43681); type: cell-based; settings: for agonist activity/potency on α4β2 receptors (in words): oocytes expressing α4β2 receptors
# T2 construct: expressed in transfected cells; host or cells: Xenopus laevis oocytes (mRNA injection, alpha4:beta2 1:1)
# Text: as §1
# [3] = system: rat brain nAChRs that bind nicotine with high affinity; settings: reference 7; cited from earlier work
# [4] = system: α6/α3 chimera/β2 receptors; settings: oocytes, FIG. 2.13
# Method: Mature female Xenopus laevis were anesthetized by immersion in a 1.5 g/L solution of aminobenzoic acid ethyl ester (MP Biomedicals, LLC, Solon, Ohio) for 30 min. The excised ovary bag was placed into calcium-free Barth's saline (88 mM NaCl, 1 mM KCl, 2.38 mM NaHCO3, 0.82 mM MgSO4, 15 mM HEPES, 0.012 mg/ml tetracycline hydrochloride, pH 7.3+−0.1), opened with forceps and washed three times with Barth's saline. Then 60 ml collagenase solution (76 mg Sigma type XX collagenase dissolved in Ca^2+-free Barth saline) was added and the oocyte containing mass was shaken for 2 hours at 5° C. After washing three times with Ca^2+-free Barth's and then three times with Barth's solution containing calcium, the oocytes were evaluated under a stereo microscope. Healthy stage 5 oocytes were transferred into new dishes and incubated in 17° C. for overnight. Oocytes were injected with either 50 nl of alpha7 mRNA solution (20 ng) or 50 nl of a mixture of alpha4 and beta2 (1:1, 10 ng) mRNA, using a Drummond Nanoject II Auto-Injector. The cells were cultured in Barth's saline at 17° C. for 5-16 days, with daily changes in the saline. […] Membrane currents were recorded with an AxoClamp-2 (Axon Instruments, Union City, Calif.), filtered at 10 kHz and sampled at 5 kHz. […]
# [5] = system: alpha7 receptors relative to alpha4beta2 nAChRs; settings: Martin et al., 2004; cited from earlier work
# [6] = listed as 3-(((2S,5S)-1,5-Dimethylpyrrolidine-2-yl)methoxy)-pyridine
# T2 sequence (P43681 29-627 limits assumed): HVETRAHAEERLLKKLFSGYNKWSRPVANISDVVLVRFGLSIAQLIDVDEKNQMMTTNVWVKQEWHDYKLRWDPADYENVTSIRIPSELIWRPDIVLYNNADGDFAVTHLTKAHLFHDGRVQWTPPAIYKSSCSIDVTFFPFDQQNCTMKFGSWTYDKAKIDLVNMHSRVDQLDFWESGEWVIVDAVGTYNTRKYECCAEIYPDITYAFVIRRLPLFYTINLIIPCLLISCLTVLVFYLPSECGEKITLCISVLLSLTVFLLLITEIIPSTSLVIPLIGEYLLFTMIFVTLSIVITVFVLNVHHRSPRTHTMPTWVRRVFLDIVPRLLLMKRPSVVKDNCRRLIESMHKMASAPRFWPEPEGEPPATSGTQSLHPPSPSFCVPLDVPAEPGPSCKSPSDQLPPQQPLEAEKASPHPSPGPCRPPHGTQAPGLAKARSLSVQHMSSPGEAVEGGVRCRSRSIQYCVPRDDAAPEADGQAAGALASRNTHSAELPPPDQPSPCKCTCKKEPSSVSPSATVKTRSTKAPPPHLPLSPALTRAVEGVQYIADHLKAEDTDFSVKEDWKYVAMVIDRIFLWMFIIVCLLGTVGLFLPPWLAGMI
# T2 sequence (P17787 26-502): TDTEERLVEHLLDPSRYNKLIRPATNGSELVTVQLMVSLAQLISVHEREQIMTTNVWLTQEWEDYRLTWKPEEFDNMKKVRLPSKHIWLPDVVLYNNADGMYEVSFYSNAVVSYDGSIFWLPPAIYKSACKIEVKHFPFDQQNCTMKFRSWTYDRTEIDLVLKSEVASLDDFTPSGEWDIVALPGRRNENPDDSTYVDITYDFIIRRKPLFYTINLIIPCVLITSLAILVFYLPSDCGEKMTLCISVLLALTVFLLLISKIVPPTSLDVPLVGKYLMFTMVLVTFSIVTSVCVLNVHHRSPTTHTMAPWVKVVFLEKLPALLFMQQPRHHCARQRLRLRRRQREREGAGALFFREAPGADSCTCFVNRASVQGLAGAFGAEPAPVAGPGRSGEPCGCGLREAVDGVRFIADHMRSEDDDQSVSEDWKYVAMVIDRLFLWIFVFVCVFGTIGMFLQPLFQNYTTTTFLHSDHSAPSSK
# T1 sequence (P36544 23-502): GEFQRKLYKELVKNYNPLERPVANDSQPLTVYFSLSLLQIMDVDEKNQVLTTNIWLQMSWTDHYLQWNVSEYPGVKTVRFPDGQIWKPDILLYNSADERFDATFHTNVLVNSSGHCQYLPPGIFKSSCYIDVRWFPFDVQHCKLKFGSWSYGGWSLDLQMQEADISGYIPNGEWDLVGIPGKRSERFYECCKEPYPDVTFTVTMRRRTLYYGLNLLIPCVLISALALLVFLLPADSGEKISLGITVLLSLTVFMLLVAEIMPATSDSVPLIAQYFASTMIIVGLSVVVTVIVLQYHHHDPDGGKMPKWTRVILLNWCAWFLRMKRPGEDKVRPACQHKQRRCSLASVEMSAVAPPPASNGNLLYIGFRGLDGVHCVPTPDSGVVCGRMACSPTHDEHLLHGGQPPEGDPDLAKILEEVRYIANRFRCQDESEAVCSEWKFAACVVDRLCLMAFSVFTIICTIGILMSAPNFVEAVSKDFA
smiles,measurement,setting,value
"C[C@H]1CC[C@@H](COc2cccnc2)N1C [3-(((2S,5S)-1,5-Dimethylpyrrolidin-2-yl)methoxy)pyridine]",agonist activity/potency on α7 receptors (in words),[1]; [6],high potency; also recorded: low activity
same,agonist activity/potency on α4β2 receptors (in words),[2],essentially no agonistic activity
same,agonist activity/potency on α4β2 receptors (in words),[2]; [6],low activity
"CCC1(c2cccnc2)CCCN1C (racemic) [2′-ethyl-nicotine, (±)-2′-Ethylnicotine]",displacement of radiolabeled methylcarbamylcholine binding (in words),[3],displace the binding
C[C@@H]1CC[C@@H](c2cccnc2)N1C [5′ Trans-Me-Nic],response of α6/α3 chimera/β2 receptors (in words),[4],essentially identical manner
same,agonist activity/potency on α4β2 receptors (in words),[2],inactive
CN1CCC1c1cccnc1 (stereo not drawn) [trans-3-(1-methylazetidin-2-yl)pyridine],agonist activity/potency on α7 receptors (in words),[1],more potent strong agonist
same,agonist activity/potency on α4β2 receptors (in words),[2],more potent strong agonist
"C[C@@H]1CC[C@@H](COc2cccnc2)N1C [3-(((2S,5R)-1,5-Dimethylpyrrolidin-2-yl)methoxy)pyridine]",agonist activity/potency on α4β2 receptors (in words),[2],essentially no agonistic activity
"CN1CCCC1(C)c1cccnc1 (racemic) [2′ methyl-nicotine, (±)-2′-Methylnicotine]",displacement of radiolabeled methylcarbamylcholine binding (in words),[3],displace the binding
same,agonist activity/potency on α7 receptors (in words),[1],excellent agonist activity
same,increase in potency at α7 nAChR relative to nicotine,[1]; FIG. 2.10,6.7 fold
same,agonist activity/potency on α4β2 receptors (in words),[2],excellent agonist activity
"CN1CCC[C@H]1c1cccnc1 [nicotine, (S)-nicotine]",alpha7 receptors less sensitive to nicotine relative to alpha4beta2 nAChRs,[5],at least 50 ×
C[C@H]1CC[C@@H](c2cccnc2)N1C [5′ Cis-Me-Nic],response of α6/α3 chimera/β2 receptors (in words),[4],essentially identical manner
same,agonist activity/potency on α4β2 receptors (in words),[2],inactive
"C[C@H]1C[C@H](c2cccnc2)N1C (relative stereo) [Trans-3-(1,4-Dimethylazetidin-2-yl)pyridine]",potency of trans- versus cis-diastereomers on α4β2 receptors (in words),"[2]; oocytes, FIG. 3.4",significantly more potent than the cis-diastereomers

# Reference: patent US9440948B2, “Nicotine compounds and analogs thereof, synthetic methods of making compounds, and methods of use” (priority 2010, dated 2016)
